In US20100292229A1, “TRYPHOSTIN-ANALOGS FOR THE TREATMENT OF CELL PROLIFERATIVE DISEASES” (The Board of Regents of the University of Texas System, priority 2006, published 2010):

Assays:
[1] = molecular target: T1, HA-tagged c-myc (Homo sapiens, UniProt P01106); experiment: HA-tagged c-myc stability in transfected HeLa cells; format: cell-based; conditions: 1 h treatment
T1 construct: labeled at the termini as 1 and 439; expressed in transfected cells; host or cells: HeLa
Protocol: Bottom: Expression vectors for HA-tagged c-myc or HA-tagged IKKγ (tagged at the N-terminus) were transfected (at the DNA content indicated) into HeLa cells as described in the methods section above. Twenty-four h later, cells were treated with Degrasyn for 1 h before harvesting cells, extracting protein and subjecting equal protein lysates to immunoblotting for c-myc (left) or IKKγ (right) using an HA-directed antibody. Actin was immunoblotted as a control for protein loading. […] These cells and transfection system were used to map the domains important for Degrasyn mediated destabilization by deletion analysis (FIG. 20).
Analysis of wild-type and mutant (deleted) c-myc protein stability. A c-myc expression vector (pCGN-MYC) was obtained from Dr. William Tansey (Cold Springs Harbor, N.Y.) and initially used to transfect HeLa cancer cells (with the SN2 cationic lipid). In subsequent studies, the c-myc gene was subcloned downstream of the HA antigen in the pcDNA3.1 vector, allowing efficient detection of transfected c-myc by anti-HA immunoblotting. Multiple site-specific mutations and domain deletions were introduced into the c-myc gene using the Stratagene Quickchange II XL kit and specific dual primer sets. The deletions/mutations were verified by direct sequencing before use. […]

[2] = system: p70 and p55 tyrosine phosphorylation; experiment: Phosphotyrosine (4G10) immunoblot in B-cell malignancy cell lines; format: cell-based
Protocol: MM-1 cells were pretreated with Degrasyn (at the concentration indicated) for 2 h before the addition of IL-6 for 15 min (as noted). Total cell lysates were prepared and equal protein aliquots were resolved by SDS-PAGE and immunoblotted for phosphotyrosine (4G10).
MM-1 and LP (lymphoma) cells were treated with Degrasyn (at the concentration indicated) for 2 h before cell lysates were prepared and equal protein aliquots were resolved by SDS-PAGE and immunoblotted for phosphotyrosine (4G10).
MM-1 and Mino (Mantle cell lymphoma) cells were treated with Degrasyns with different levels of anti-tumor efficacy (at the concentration indicated) for 2 h before cell lysates were prepared and equal protein aliquots were resolved by SDS-PAGE and immunoblotted for phosphotyrosine (4G10).
MM-1 cells were treated as indicated before analysis of cellular tyrosine phosphorylation by immunoblotting. Both p70 and p55 were tyrosine phosphorylated after 15 min of Degrasyn treatment which peaks in intensity after 1 h and remains higher than control levels after 4 h. These early changes may underlie or be a marker of Degrasyn activity in B-cell malignancies.
Western Blot analysis. Cells were harvested, washed twice in cold 1×PBS and lysed in modified RIPA lysis buffer (150 mM NaCl, 1% NP-40, 0.5% Na-deoxycholate [DOC], 0.1% Na-dodecyl sulfate [SDS], 50 mM Tris-HCl (pH 7.5), 1 mM EDTA, 1 mM NaF, 2 mM Na-vanadate, with protease inhibitors (1 mM PMSF, 1 mM benzamidine, 10 μg/ml aprotinin, 10 μg/ml leupeptin) on ice for 30 min. The lysed cells were centrifuged at 13,000 rpm for 30 min and the supernatant collected. The protein concentration of the cell lysate was determined by the Bradford Protein Assay. Fifty to 60 μg of protein were resolved in a 10% SDS-PAGE, and transferred to a PVDF membrane. Western blotting was performed using specific primary antibodies Peroxidase-conjugated affiniPure anti-Mouse Anti-Rabbit secondary antibodies (Jackson Immunoresearch Laboratories, West Grove, Pa.). The proteins were visualized with ECL Plus reagents (Amersham Biosciences).

[3] = system: A375 melanoma tumors; experiment: A375 melanoma tumors in nude mice; format: in vivo, Swiss nude mice
Protocol: Ten Swiss nude mice (6-7 weeks of age) were injected subcutaneously (sc) with […] A375 melanoma cells on Day 0. When tumor nodules were palpable (Day 8), animals were divided into 2 groups. One group (Control) received 0.1 ml DMSO/PEG (1:1) intraperitoneally (ip) every other day […] for a total of 14 injections. The second group received 40 mg/kg Degrasyn ip beginning on Day 8 and repeated every other day for a total of 14 injections. Body weight and tumor volumes (by calipers) were measured every other day, the latter plotted vs. time. […] All animals were euthanized when tumor volumes (in the control group) achieved the maximal allowable burden (1.5 cm^3). The average +/−S.E.M. tumor volume from 5 animals per group is shown.
Anti-tumor studies. Swiss Nu/Nu mice were obtained from the breeding facility in the Department of Experimental Radiotherapy at M.D. Anderson Cancer Center. On Day 0, 200 μl of an A375 cell suspension (5×10^6 cells/ml) were injected (s.c.) into female Swiss nude mice 6-7 weeks of age. At the interval noted, compounds were injected (i.p. or oral gavage) into tumor bearing mice in a 0.1 ml suspension of DMSO/PEG300 (50/50). Degrasyn (40 mg/kg) was administrated on an every other day schedule, for 5 or more injections. […] Tumor volumes were measured every other day using calipers (Cel Associates, Houston, Tex.).

[4] = molecular target: T2, nucleophosmin (NPM) (Homo sapiens, UniProt P06748); experiment: Affinity recovery of Degrasyn interactive proteins with streptavidin beads; format: binding; conditions: MM-1 or K562 cell lysates
T2 construct: endogenous in cells; host or cells: MM-1 and K562 cell lysates
T2 sequence (P06748 whole entry): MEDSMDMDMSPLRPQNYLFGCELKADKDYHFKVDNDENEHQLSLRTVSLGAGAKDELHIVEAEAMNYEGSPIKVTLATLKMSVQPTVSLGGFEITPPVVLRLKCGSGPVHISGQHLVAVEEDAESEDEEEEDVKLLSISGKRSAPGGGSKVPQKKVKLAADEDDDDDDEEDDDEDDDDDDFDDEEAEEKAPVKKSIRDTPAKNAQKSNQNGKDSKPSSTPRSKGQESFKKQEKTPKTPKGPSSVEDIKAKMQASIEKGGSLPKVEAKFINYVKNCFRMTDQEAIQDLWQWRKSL
Protocol: Biotinylated-Degrasyn (10 μM) was incubated with lysates from MM-1 cells (10 mg total protein) and interactive proteins were assessed by affinity recovery using Streptavidin-conjugated beads to bind biotinylated-Degrasyn. Free Degrasyn (10 μM) was incubated with biotinylated-Degrasyn in a parallel experiment to assist in identifying specific protein:Degrasyn interactions. Affinity complexes were washed and Streptavidin-Bio-Deg interaction proteins were assessed by disrupting protein complexes with SDS-sample buffer and resolving proteins by SDS-PAGE. The resolved proteins were detected by silver-staining the gel. Protein bands present in the biotinylated-Degrasyn sample that were absent in samples co-incubated with free Degrasyn were identified and cut from the gel. A 38 kDa protein band was prominent in this assessment and was subjected to in gel trypsinization and identification of HPLC resolved tryptic peptides by tandem mass spectroscopy analysis (David Hawke, Department of Molecular Pathology, M.D. Anderson Cancer Center). This analysis identified nucleophosmin (NPM) as a Degrasyn interactive protein.
To further assess the interaction between NPM and Degrasyn, biotinylated-Degrasyn/streptavidin beads were incubated with MM-1 (left) or K562 (right) cell lysates. In parallel, lysates were co-incubated with free Degrasyn to determine the specificity of the interaction with NPM. […]

T1 sequence (P01106 16-454): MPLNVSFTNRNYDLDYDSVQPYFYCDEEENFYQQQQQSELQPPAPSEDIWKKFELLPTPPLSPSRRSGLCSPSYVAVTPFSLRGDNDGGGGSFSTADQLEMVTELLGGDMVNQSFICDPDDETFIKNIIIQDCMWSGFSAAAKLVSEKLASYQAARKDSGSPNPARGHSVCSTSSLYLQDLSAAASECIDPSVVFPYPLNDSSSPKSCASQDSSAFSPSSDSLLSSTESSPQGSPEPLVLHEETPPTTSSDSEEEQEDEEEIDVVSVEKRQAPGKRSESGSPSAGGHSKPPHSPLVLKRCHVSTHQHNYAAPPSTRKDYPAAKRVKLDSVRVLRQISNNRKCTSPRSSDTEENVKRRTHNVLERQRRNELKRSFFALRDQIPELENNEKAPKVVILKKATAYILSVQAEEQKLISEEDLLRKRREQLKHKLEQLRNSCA

CCC[C@H](NC(=O)/C(C#N)=C/c1cccc(Br)n1)c1ccccc1 [Degrasyn]
HA-tagged c-myc and HA-tagged IKKγ levels [1]: reduced HA-tagged c-myc but did not affect HA-tagged IKKγ | Tyrosine phosphorylated protein species (~70 kDa, ~55 kDa) ([2]; 2 h, MM-1, LP or Mino cells): increased | Time at which p70 and p55 were tyrosine phosphorylated ([2]; MM-1): 15 min | Time of peak intensity of p70 and p55 tyrosine phosphorylation ([2]; MM-1): 1 h | Tyrosine phosphorylated protein species (~70 kDa, ~55 kDa), with IL-6 ([2]; MM-1, 2 h pretreatment, IL-6 15 min): increased | Animal weight ([3]; 40 mg/kg ip every other day): did not affect animal weight | Growth of A375 tumors (tumor volume) ([3]; 40 mg/kg ip every other day from Day 8, 14 injections): suppresses the growth of A375 tumors in vivo | Interaction with NPM [4]: interacts with NPM
